Results reported in US20260042769A1, “TRIARYL AGONISTS OF ALPHA-2 ADRENERGIC RECEPTORS” (ALCEPTOR THERAPEUTICS, INC., priority 2023, published 2026).

What follows are compounds tested against T1, human ADRA2B receptor (Homo sapiens, UniProt P18089) (assay: GTPγS agonist assay, ADRA2B receptor). Conditions: read-out: GTPase - Human Alpha2B EC50.
T1 construct: expressed in transfected cells
T1 sequence (P18089 1-450): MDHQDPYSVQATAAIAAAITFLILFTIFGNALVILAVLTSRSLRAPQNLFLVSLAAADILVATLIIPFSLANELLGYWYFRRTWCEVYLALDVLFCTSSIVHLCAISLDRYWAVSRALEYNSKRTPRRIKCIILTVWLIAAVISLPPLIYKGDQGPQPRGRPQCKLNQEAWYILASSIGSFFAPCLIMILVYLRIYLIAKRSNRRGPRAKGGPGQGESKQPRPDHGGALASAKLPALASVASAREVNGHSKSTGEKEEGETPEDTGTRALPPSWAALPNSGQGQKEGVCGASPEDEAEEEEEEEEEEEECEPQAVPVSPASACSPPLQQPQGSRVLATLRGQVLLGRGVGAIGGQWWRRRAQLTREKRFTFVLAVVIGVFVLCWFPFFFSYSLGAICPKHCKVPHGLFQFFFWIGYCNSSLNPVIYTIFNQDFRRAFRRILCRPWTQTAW
Assay type: biochemical
Method in brief: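 CHO-K1 membranes stably expressing human ADRA2B (5 μg protein) in 20 mM HEPES, 10 mM MgCl2, 200 mM NaCl with GDP, preincubated 10 min at room temperature with compound. Binding reaction 1 h at 37° C; bound label collected on GF/C filters, washed, read by scintillation counting.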

Q: How did the EC50 turn out when `Cc1cccc(C(Cc2ccnnc2)c2cnc[nH]2)c1C` (stereo not shown) [Compound 104, 4-[2-(4-imidazolyl)-2-(2,3-xylyl)ethyl] pyridazine] was run?
A: > 0.5 µM

Q: How did the EC50 turn out when `COc1c(Cl)cccc1C(Cc1cccnn1)c1c[nH]cn1` (stereo not shown) [Compound 160, 3-[2-(3-chloro-2-methoxyphenyl)-2-(4-imidazolyl)ethyl] pyridazine] was run?
A: > 0.5 µM

Q: For `Cc1nccc(CC(c2c[nH]cn2)c2cccc3ncoc23)n1` (stereo not shown) [Compound 338, 7-[1-(4-imidazolyl)-2-(2-methyl-4-pyrimidinyl)ethyl]-1,3-benzoxazole], which EC50 is on record?
A: > 0.5 µM

Q: `Fc1ccc(C(Cc2cccnn2)c2c[nH]cn2)c(F)c1Cl` (stereo not shown) [Compound 173, 3-[2-(3-chloro-2,4-difluorophenyl)-2-(4-imidazolyl)ethyl] pyridazine] was tested. Which EC50 did it give?
A: > 0.5 µM

Q: `COc1ncc(C[C@@H](c2c[nH]cn2)c2cccc(Cl)c2C)cn1` [Compound 108, 5-[(R)-2-(3-chloro-2-tolyl)-2-(4-imidazolyl)ethyl]-2-methoxy-pyrimidine] was tested. Which EC50 did it give?
A: 0.05 to 0.5 µM

Q: Which EC50 does the source give for `c1ccc(C[C@H](c2cnc[nH]2)c2cccc3c2CCO3)nc1` [Compound 41, 2-[(2S)-2-(2,3-dihydro-1-benzofuran-4-yl)-2-(1H-imidazol-4-yl)ethyl]pyridine] here?
A: < 0.01 µM

Q: How did the EC50 turn out when `c1cnnc(C[C@@H](c2c[nH]cn2)c2cccc3c2CCO3)c1` [Compound 324, 3-[(R)-2-(2,3-dihydro-1-benzofuran-4-yl)-2-(4-imidazolyl)ethyl]pyridazine] was run?
A: > 0.5 µM

Q: `COc1cccc(C[C@@H](c2c[nH]cn2)c2cccc(OC)c2Cl)n1` [Compound 110, 4-[(R)-1-(2-chloro-3-methoxyphenyl)-2-(6-methoxy-2-pyridyl)ethyl] imidazole] was tested. Which EC50 did it give?
A: < 0.01 µM

Q: With `COc1cccc(C(Cc2cccc(OC)n2)c2cnc[nH]2)c1` (stereo not shown) [Compound 25, 2-[2-(1H-imidazol-4-yl)-2-(3-methoxyphenyl)ethyl]-6-methoxypyridine] as the compound, how does the EC50 read?
A: 0.05 to 0.5 µM

Q: For `Cc1cccc(C(Cc2ncccn2)c2cnc[nH]2)c1C` (stereo not shown) [Compound 93, 2-[2-(2,3-dimethylphenyl)-2-(1H-imidazol-4-yl)ethyl] pyrimidine], which EC50 is on record?
A: 0.05 to 0.5 µM

Q: `COc1nccc(C[C@@H](c2cnc[nH]2)c2cccc(C)c2C)n1` [Compound 54, 4-[(2R)-2-(2,3-dimethylphenyl)-2-(1H-imidazol-4-yl)ethyl]-2-methoxy-pyrimidine] was tested. Which EC50 did it give?
A: 0.05 to 0.5 µM

Q: `Cc1cccc(C(Cc2cccnn2)c2c[nH]cn2)c1` (stereo not shown) [Compound 228, 3-[2-(4-imidazolyl)-2-(m-tolyl)ethyl]pyridazine] was tested. Which EC50 did it give?
A: > 0.5 µM

Q: For `Cc1cccc([C@H](Cc2ccccn2)c2cnc[nH]2)c1Cl` [Compound 47, 2-[(2S)-2-(2-chloro-3-methylphenyl)-2-(1H-imidazol-4-yl)ethyl] pyridine], which EC50 is on record?
A: > 0.5 µM

Q: With `Cc1nc(C[C@@H](c2cnc[nH]2)c2cccc(C)c2C)cs1` [Compound 102, 4-[(R)-2-(4-imidazolyl)-2-(2,3-xylyl)ethyl]-2-methyl-1,3-thiazole] as the compound, how does the EC50 read?
A: 0.01 to 0.05 µM

Q: Which EC50 does the source give for `COCCNc1cccc(CC(c2cnc[nH]2)c2cccc(C)c2C)n1` (stereo not shown) [Compound 84, 6-[2-(2,3-dimethylphenyl)-2-(1H-imidazol-4-yl)ethyl]-N-(2-methoxyethyl) pyridin-2-amine] here?
A: < 0.01 µM

Q: How did the EC50 turn out when `CCOc1c(F)cccc1C(Cc1cccnn1)c1c[nH]cn1` (stereo not shown) [Compound 231, 3-[2-(2-ethoxy-3-fluorophenyl)-2-(4-imidazolyl)ethyl] pyridazine] was run?
A: > 0.5 µM

Q: With `Cc1cncc(C[C@@H](c2cnc[nH]2)c2cccc(C)c2C)n1` [Compound 83, 2-[(2R)-2-(2,3-dimethylphenyl)-2-(1H-imidazol-4-yl)ethyl]-6-methylpyrazine] as the compound, how does the EC50 read?
A: < 0.01 µM

Q: For `Cc1cccc([C@@H](Cc2ccon2)c2c[nH]cn2)c1C` [Compound 100, 3-[(R)-2-(4-imidazolyl)-2-(2,3-xylyl)ethyl] isoxazole], which EC50 is on record?
A: 0.01 to 0.05 µM

Q: Which EC50 does the source give for `COc1cccc(C[C@@H](c2c[nH]cn2)c2cccc(C)c2F)n1` (single isomer, unassigned) [Compound 6] here?
A: 0.05 to 0.5 µM

Q: `Cc1cccc([C@H](Cc2ccn(C)n2)c2c[nH]cn2)c1C` [Compound 106, 3-[(S)-2-(4-imidazolyl)-2-(2,3-xylyl)ethyl]-1-methylpyrazole] was tested. Which EC50 did it give?
A: 0.01 to 0.05 µM

Q: Which EC50 does the source give for `Cc1cccc(C(Cc2c(C)noc2C)c2c[nH]cn2)c1C` (stereo not shown) [Compound 113, 4-[2-(4-imidazolyl)-2-(2,3-xylyl)ethyl]-3,5-dimethyl-isoxazole] here?
A: 0.05 to 0.5 µM

Q: For `Cc1cccc([C@@H](Cc2cnco2)c2c[nH]cn2)c1C` [Compound 365, 5-[(R)-2-(4-imidazolyl)-2-(2,3-xylyl)ethyl]-1,3-oxazole], which EC50 is on record?
A: > 0.5 µM

Q: Which EC50 does the source give for `COc1nccc(CC(c2c[nH]cn2)c2cc(Cl)ccc2C)n1` (stereo not shown) [Compound 184, 4-[2-(5-chloro-2-tolyl)-2-(4-imidazolyl)ethyl]-2-methoxypyrimidine] here?
A: 0.05 to 0.5 µM

Q: For `Cc1cccc(C(Cc2ccnn2C)c2c[nH]cn2)c1C` (stereo not shown) [Compound 127, 5-[2-(4-imidazolyl)-2-(2,3-xylyl)ethyl]-1-methyl-pyrazole], which EC50 is on record?
A: < 0.01 µM

Q: Which EC50 does the source give for `Fc1c(Cl)cccc1C(Cc1cccnn1)c1c[nH]cn1` (stereo not shown) [Compound 219, 3-[2-(3-chloro-2-fluorophenyl)-2-(4-imidazolyl)ethyl] pyridazine] here?
A: > 0.5 µM

Q: How did the EC50 turn out when `FC(F)Oc1cccc([C@@H](Cc2ccccn2)c2cnc[nH]2)c1` [Compound 38, 2-[(2R)-2-[3-(difluoromethoxy)phenyl]-2-(1H-imidazol-4-yl)ethyl]pyridine] was run?
A: > 0.5 µM

Q: Which EC50 does the source give for `COc1cccc(C[C@@H](c2cnc[nH]2)c2cccc(OC)c2C)n1` [Compound 27, 2-[(2R)-2-(1H-imidazol-4-yl)-2-(3-methoxy-2-methylphenyl)ethyl]-6-methoxypyridine] here?
A: < 0.01 µM

Q: With `COc1ncc(C[C@H](c2c[nH]cn2)c2cccc(Cl)c2C)cn1` [Compound 109, 5-[(S)-2-(3-chloro-2-tolyl)-2-(4-imidazolyl)ethyl]-2-methoxy-pyrimidine] as the compound, how does the EC50 read?
A: < 0.01 µM

Q: `Cc1cccc(C(Cc2ncc(F)cn2)c2c[nH]cn2)c1C` (stereo not shown) [Compound 112, 5-fluoro-2-[2-(4-imidazolyl)-2-(2,3-xylyl)ethyl] pyrimidine] was tested. Which EC50 did it give?
A: 0.05 to 0.5 µM

Q: With `COc1cccc(C[C@H](c2c[nH]cn2)c2cccc3c2CCO3)n1` [Compound 18, 2-[(2S)-2-(2,3-dihydro-1-benzofuran-4-yl)-2-(1H-imidazol-4-yl)ethyl]-6-methoxypyridine] as the compound, how does the EC50 read?
A: > 0.5 µM

Q: How did the EC50 turn out when `Cc1c(Cl)cccc1[C@@H](Cc1cccnc1)c1cnc[nH]1` [Compound 63, 3-[(2R)-2-(3-chloro-2-methylphenyl)-2-(1H-imidazol-4-yl)ethyl]pyridine] was run?
A: < 0.01 µM

Q: `COc1nccc(CC(c2c[nH]cn2)c2cccc3c2ccn3C)n1` (stereo not shown) [Compound 193, 4-[2-(4-imidazolyl)-2-(1-methyl-4-indolyl)ethyl]-2-methoxypyrimidine] was tested. Which EC50 did it give?
A: < 0.01 µM

Q: For `Cc1cc(C[C@H](c2cnc[nH]2)c2cccc(C)c2C)n(C)n1` [Compound 68, 5-[(2S)-2-(2,3-dimethylphenyl)-2-(1H-imidazol-4-yl)ethyl]-1,3-dimethyl-1H-pyrazole], which EC50 is on record?
A: > 0.5 µM

Q: For `COc1cccc(C[C@H](c2cnc[nH]2)c2cccc3c2COC3)n1` [Compound 11, 2-[(2S)-2-(1,3-dihydro-2-benzofuran-4-yl)-2-(1H-imidazol-4-yl)ethyl]-6-methoxypyridine], which EC50 is on record?
A: < 0.01 µM

Q: With `COc1cccc(C[C@@H](c2cnc[nH]2)c2cccc(Cl)c2C)n1` [Compound 15, 2-[(2R)-2-(3-chloro-2-methylphenyl)-2-(1H-imidazol-4-yl)ethyl]-6-methoxypyridine] as the compound, how does the EC50 read?
A: < 0.01 µM

Q: Which EC50 does the source give for `Cc1cccc([C@H](Cc2ccnc(CF)n2)c2c[nH]cn2)c1C` [Compound 152, 4-[(S)-2-(4-imidazolyl)-2-(2,3-xylyl)ethyl]-2-(fluoromethyl) pyrimidine] here?
A: 0.05 to 0.5 µM

Q: How did the EC50 turn out when `FC(F)(F)c1ccc(C(Cc2cccnn2)c2c[nH]cn2)c(Cl)c1` (stereo not shown) [Compound 201, 3-{2-[2-chloro-4-(trifluoromethyl)phenyl]-2-(4-imidazolyl)ethyl} pyridazine] was run?
A: > 0.5 µM

Q: `COc1nccc(CC(c2c[nH]cn2)c2cccc(Cl)c2Cl)n1` (stereo not shown) [Compound 200, 4-[2-(2,3-dichlorophenyl)-2-(4-imidazolyl)ethyl]-2-methoxypyrimidine] was tested. Which EC50 did it give?
A: < 0.01 µM

Q: For `COc1nccc(CC(c2ccc(C(F)F)cc2)c2c[nH]cn2)n1` (stereo not shown) [Compound 188, 4-{2-[p-(difluoromethyl)phenyl]-2-(4-imidazolyl)ethyl}-2-methoxypyrimidine], which EC50 is on record?
A: > 0.5 µM

Q: `Cc1cccc([C@@H](Cc2ccnc(C(F)(F)F)n2)c2cnc[nH]2)c1C` [Compound 73, 4-[(2R)-2-(2,3-dimethylphenyl)-2-(1H-imidazol-4-yl)ethyl]-2-(trifluoromethyl) pyrimidine] was tested. Which EC50 did it give?
A: > 0.5 µM

Q: With `COc1cccc(C[C@H](c2c[nH]cn2)c2cccc(OC)c2Cl)n1` [Compound 111, 4-[(S)-1-(2-chloro-3-methoxyphenyl)-2-(6-methoxy-2-pyridyl)ethyl] imidazole] as the compound, how does the EC50 read?
A: 0.05 to 0.5 µM

Q: `COc1nccc(CC(c2c[nH]cn2)c2cccc(Cl)c2C#N)n1` (stereo not shown) [Compound 196, 6-chloro-2-[1-(4-imidazolyl)-2-(2-methoxy-4-pyrimidinyl)ethyl] benzonitrile] was tested. Which EC50 did it give?
A: 0.05 to 0.5 µM

Q: Which EC50 does the source give for `COc1nccc(CC(c2c[nH]cn2)c2cccc3c2cnn3C)n1` (stereo not shown) [Compound 194, 4-[1-(4-imidazolyl)-2-(2-methoxy-4-pyrimidinyl)ethyl]-1-methyl-1H-indazole] here?
A: 0.01 to 0.05 µM
